These are literature values, as cited in patent US9839606B2, “Formulation for treatment of hairs” (OSMA Cosmetics & Laboratories AG, priority 2013, dated 2017).

For series [1], the system named is human dermal papilla cells (DPCs).

On to epigallocatechin-3-gallate [EGCG], for which the “hair growth in hair follicles ex vivo culture” value with hair follicles is given as “promoted hair growth”. Further, the “proliferation of cultured DPCs” value in series [1] is on record as “promoted”.
